Data set [1] deals with EFT-400 kit skin model. Put plainly: Penetration test for ointment into skin model. The class given is in vitro ADME. The method, then:
Penetration of an ointment into a skin model was tested using the sirolimus ointment prepared in Example 4 as a test substance and an EFT-400 kit manufactured by MetTec Corporation as the skin model.
Skin model cells were transferred to a 6-well plate into which an EFT-400 assay medium was dispensed, and the cells were incubated overnight (for 16 to 18 hours) in a carbon dioxide incubator (37° C., 5% CO2, under a humidified condition).
About 50 mg of the test substance was applied onto the center of the cultured skin cells and evenly spread on the cells. These cells were incubated for 24 hours in a carbon dioxide incubator (37° C., 5% CO2, under a humidified condition). […]
Then, the sample solution was diluted 10-fold with the blank matrix, and 20 μL of the diluted sample solution was collected in a PP tube. 20 μL of acetonitrile, 20 μL of the internal standard solution, and 50 μL methanol were added to and mixed with the diluted sample solution, and the mixture was subjected to LC/MS/MS under the following conditions to quantify a sirolimus concentration in the measurement sample. The mass of sirolimus that transferred to the dermic layer was calculated from the obtained value of the sirolimus concentration and the mass of the dermic layer used in the preparation of the sample solution. […]

The nature of data set [2]: Solubility of sirolimus in each single solvent (visual observation). The conditions noted are these: sirolimus:solvent 1:50 (weight ratio). The class given is physicochemical. The method, then:
Sirolimus was mixed into each solvent shown in Table 1 so that sirolimus:solvent was a ratio of 1:50 (weight ratio), heating and ultrasonic irradiation were performed thereon in a water bath of about 50° C., and solubility was confirmed by visual observation.

Data set [3] in a line: Effects of mixing amount of BHT on stability of sirolimus, HPLC quantification. The class given is physicochemical. To be noted: BHT mixed at a concentration of 1% or higher; 40° C. and 50° C. for 2 weeks. How it is done:
Quantification of sirolimus was performed by conducting an HPLC test under the following conditions and comparing the area of a sirolimus peak in a test substance and the area of a sirolimus peak in a sirolimus standard.
Detector: ultraviolet absorption photometer (detection wavelength: 278 nm)
Column: stainless steel tube with internal diameter of 4.6 mm and length of 250 mm filled with octadecylsilyl-silica gel for chromatography
Column temperature: constant temperature of about 40° C.
Mobile phase: acetonitrile/0.02 mol/L ammonium acetate buffer (pH 6.0)=13/7
Solutions were prepared by mixing various concentrations of BHT into the ethanol solution of sirolimus, and the solutions were stored at 40° C. and 50° C. for 2 weeks. Quantification of sirolimus was performed on samples after the storage by the same method as that in Reference Example 2 to calculate residual ratios.

The source of these data is patent publication US20230056335A1, “TOPICAL FORMULATION CONTAINING RAPAMYCIN” (NOBELPHARMA CO., LTD., priority 2020, published 2023).

As to `CO[C@H]1C[C@@H]2CC[C@@H](C)[C@@](O)(O2)C(=O)C(=O)N2CCCC[C@H]2C(=O)O[C@H]([C@H](C)C[C@@H]2CC[C@@H](O)[C@H](OC)C2)CC(=O)[C@H](C)/C=C(\C)[C@@H](O)[C@@H](OC)C(=O)[C@H](C)C[C@H](C)/C=C/C=C/C=C/1C` [sirolimus], the “Rate of sirolimus transferred to the dermic layer” value in data set [1] (sirolimus ointment prepared in Example 4, about 50 mg applied, 24 hours incubation, LC/MS/MS) is listed as 1.402 % with respect to the indicated dose. The Skin penetrating properties result in data set [1] (sirolimus ointment prepared in Example 4, EFT-400 skin model) is “sufficiently maintained”. For the same compound, the “Solubility in a single solvent” value in data set [2] (each solvent of Table 1) is listed as “did not dissolve”. The Solubility entry in data set [2] (solvent 1,3 Butylene glycol, about 50° C.) is given as “Insoluble (cloudy liquid)”; in data set [2] (solvent Diethyl sebacate, about 50° C.) it was “Insoluble (cloudy liquid)”; in data set [2] (solvent Diisopropyl sebacate, about 50° C.), “Insoluble (cloudy liquid)”; in data set [2] (solvent Ethylene glycol salicylate, about 50° C.) it was “Insoluble (cloudy liquid)”; in data set [2] (solvent Medium-chain fatty acid triglyceride, heating and ultrasonic irradiation about 50° C.), “Insoluble (cloudy liquid)”; in data set [2] (solvent Polyethylene glycol (Macrogol 400), about 50° C.), “Insoluble (cloudy liquid)”. The Solubility entry was “Insoluble (cloudy liquid)” in data set [2] (solvent Propylene glycol, about 50° C.); “Insoluble (cloudy liquid)” in data set [2] (solvent Squalane, about 50° C.); “Insoluble (cloudy liquid)” in data set [2] (solvent Triacetin, about 50° C.). The Stability of sirolimus entry in data set [3] was “stability of sirolimus was maintained”.
